Assay results as given in patent publication US20230146395A1, “Substituted Pyrimidines and Uses Thereof” (Verge Analytics, Inc., priority 2020, published 2023).

Legend:
[1] = molecular target: T1, Full length human recombinant PIKFYVE (Homo sapiens, UniProt Q9Y2I7); assay: Inhibition of PIKfyve (microfluidic electrophoresis kinase assay, PI3P/PS substrate); assay type: biochemical; conditions: 12 concentrations
T1 construct: Full length human recombinant PIKFYVE; purchased Carna Biosciences (Kobe, Japan); host or cells: baculovirus expression system
T1 sequence (Q9Y2I7 whole entry): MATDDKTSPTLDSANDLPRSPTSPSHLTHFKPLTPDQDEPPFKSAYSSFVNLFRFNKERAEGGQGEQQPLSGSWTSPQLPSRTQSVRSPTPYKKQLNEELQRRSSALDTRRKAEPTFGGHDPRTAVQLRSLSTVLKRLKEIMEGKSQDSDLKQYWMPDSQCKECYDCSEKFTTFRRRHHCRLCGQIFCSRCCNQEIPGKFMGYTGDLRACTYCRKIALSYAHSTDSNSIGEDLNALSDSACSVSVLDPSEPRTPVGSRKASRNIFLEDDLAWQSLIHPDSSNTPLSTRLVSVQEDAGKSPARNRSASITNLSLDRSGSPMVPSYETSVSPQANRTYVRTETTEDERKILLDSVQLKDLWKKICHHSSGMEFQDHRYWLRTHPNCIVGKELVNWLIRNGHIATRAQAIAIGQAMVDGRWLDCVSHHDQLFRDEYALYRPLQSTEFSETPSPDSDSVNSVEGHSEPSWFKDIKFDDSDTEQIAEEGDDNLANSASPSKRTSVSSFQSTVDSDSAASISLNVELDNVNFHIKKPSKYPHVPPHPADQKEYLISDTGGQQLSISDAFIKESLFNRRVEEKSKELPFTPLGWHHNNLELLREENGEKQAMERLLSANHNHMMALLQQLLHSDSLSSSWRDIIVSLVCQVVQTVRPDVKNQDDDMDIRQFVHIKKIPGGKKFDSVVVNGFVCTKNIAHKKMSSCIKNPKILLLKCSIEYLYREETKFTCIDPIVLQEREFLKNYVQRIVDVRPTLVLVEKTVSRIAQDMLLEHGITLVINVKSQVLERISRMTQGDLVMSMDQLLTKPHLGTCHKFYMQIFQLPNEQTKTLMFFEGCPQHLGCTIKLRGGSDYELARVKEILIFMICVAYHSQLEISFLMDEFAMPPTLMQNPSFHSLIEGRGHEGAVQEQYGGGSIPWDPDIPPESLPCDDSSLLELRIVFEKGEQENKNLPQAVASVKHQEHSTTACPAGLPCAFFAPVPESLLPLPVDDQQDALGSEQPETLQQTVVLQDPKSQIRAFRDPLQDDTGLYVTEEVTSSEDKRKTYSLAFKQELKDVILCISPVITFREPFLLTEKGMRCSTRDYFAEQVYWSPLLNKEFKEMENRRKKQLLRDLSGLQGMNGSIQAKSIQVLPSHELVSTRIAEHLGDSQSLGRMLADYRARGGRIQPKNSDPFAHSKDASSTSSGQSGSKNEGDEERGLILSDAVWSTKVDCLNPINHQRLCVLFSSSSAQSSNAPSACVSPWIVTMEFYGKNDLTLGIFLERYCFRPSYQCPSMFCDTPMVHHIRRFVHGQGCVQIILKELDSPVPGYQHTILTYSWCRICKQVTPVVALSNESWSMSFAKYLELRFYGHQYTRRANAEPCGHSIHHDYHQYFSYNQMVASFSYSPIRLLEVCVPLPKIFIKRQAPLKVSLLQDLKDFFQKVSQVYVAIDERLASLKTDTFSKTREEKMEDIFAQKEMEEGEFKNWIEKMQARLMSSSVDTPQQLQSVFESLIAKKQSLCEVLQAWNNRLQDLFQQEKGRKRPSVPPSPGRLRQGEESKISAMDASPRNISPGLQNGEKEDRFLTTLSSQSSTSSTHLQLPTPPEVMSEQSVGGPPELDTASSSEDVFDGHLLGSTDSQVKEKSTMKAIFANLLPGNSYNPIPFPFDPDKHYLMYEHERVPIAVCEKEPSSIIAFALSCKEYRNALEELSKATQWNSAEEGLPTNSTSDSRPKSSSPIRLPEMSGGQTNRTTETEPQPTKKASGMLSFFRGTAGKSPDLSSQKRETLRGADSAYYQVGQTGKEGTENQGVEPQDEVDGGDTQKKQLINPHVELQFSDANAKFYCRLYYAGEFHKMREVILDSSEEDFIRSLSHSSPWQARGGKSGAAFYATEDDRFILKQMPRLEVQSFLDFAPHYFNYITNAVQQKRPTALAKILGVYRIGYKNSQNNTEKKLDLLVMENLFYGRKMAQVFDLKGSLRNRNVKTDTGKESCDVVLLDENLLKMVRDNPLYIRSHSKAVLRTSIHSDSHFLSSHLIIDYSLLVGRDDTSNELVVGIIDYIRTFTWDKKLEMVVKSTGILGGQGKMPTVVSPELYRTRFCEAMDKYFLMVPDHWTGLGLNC
In short: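 GST-tagged full-length human PIKFYVE (baculovirus; 2 nM) with fluorescent PI3P/PS (1 μM PI3P) and […] in pH 7.5 HEPES with Mg2+/Mn2+, 1% DMSO, 3 h at room temperature. PI(3,5)P product/substrate ratio read by microfluidic electrophoresis; 12-point % inhibition versus no-enzyme and DMSO controls.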

[2] = molecular target: T2, PI3Kα (Homo sapiens, UniProt P42336); assay: Inhibition of PI3K isoforms: PI3Kα (microfluidic electrophoresis kinase assay, PIP2/PS substrate); assay type: biochemical; conditions: p110α/p85α, ATP 90 μM; read-out: PI3Ka IC50
T2 construct: Full-length N-terminal; FLAG (N); host or cells: SF9 cells (baculovirus)
T2 sequence (P42336 whole entry, canonical isoform): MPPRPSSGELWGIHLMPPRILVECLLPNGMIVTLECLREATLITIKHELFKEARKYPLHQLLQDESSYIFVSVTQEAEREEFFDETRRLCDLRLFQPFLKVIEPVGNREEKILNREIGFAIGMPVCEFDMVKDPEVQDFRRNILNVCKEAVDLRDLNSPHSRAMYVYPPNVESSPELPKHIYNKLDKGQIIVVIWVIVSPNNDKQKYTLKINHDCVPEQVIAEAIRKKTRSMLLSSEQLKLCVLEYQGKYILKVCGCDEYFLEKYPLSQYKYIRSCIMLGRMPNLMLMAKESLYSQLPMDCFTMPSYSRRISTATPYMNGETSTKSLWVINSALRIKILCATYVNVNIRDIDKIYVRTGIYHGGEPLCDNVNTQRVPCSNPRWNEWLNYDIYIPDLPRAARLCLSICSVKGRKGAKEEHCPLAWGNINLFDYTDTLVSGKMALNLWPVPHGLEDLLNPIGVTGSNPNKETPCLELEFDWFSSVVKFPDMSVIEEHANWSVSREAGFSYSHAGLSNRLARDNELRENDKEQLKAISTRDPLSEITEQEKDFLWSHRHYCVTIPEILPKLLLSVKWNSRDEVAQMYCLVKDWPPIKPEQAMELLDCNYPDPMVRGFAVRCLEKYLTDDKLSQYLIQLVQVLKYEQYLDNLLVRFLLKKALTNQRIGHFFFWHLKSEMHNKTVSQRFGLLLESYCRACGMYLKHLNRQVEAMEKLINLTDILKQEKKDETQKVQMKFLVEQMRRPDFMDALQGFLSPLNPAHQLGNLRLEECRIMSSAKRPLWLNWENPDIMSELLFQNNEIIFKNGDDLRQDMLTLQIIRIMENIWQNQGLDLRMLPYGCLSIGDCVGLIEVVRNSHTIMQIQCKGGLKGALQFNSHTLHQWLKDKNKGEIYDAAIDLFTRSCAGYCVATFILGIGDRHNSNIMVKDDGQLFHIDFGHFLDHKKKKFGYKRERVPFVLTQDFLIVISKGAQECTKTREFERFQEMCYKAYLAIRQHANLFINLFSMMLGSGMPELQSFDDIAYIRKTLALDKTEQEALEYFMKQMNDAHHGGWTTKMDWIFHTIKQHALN
T2 sequence (P27986 whole entry partner, canonical isoform): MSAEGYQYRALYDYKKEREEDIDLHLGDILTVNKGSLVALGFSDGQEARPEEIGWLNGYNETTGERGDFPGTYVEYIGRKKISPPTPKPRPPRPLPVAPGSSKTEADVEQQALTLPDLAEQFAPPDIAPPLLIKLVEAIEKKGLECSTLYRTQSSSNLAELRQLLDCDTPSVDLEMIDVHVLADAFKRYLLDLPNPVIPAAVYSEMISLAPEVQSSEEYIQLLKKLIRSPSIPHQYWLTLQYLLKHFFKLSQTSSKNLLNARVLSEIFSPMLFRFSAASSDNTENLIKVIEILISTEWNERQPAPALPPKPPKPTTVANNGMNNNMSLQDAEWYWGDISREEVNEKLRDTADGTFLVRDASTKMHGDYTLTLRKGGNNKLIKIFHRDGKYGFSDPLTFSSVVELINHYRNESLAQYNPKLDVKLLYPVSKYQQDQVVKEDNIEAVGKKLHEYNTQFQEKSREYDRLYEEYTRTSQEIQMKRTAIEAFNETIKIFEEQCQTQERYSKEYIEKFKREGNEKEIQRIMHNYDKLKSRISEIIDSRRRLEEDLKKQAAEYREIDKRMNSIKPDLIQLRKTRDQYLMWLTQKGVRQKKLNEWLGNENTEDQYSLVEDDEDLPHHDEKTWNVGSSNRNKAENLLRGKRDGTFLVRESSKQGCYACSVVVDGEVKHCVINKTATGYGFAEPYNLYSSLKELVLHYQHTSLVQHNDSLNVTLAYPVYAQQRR
Experimental: The kinase substrate was prepared by mixing and sonicating fluorescently-labeled phosphatidylinositol 4,5-phosphate (PIP2) with phospho-L-serine (PS) at 1:20 ratio in 50 mM HEPES buffer pH7.5.
The kinase reactions were assembled in 384-well plates (Greiner) in a total volume of […] as follows. The kinase proteins were pre-diluted in an assay buffer comprising 50 mM HEPES, pH 7.5, 0.012% CHAPS, 1 mM DTT, 10 mM Na3VaO4, 10 mM 3-GP, 3 mM MgCl2, and 40 mM NaCl2, and dispensed into a 384-well plate (10 μL per well). Test compounds were serially pre-diluted in DMSO and added to the protein samples by acoustic dispensing (Labcyte Echo). The concentration of DMSO was equalized to 1% in all samples. All test compounds were tested at 12 concentrations. The control samples (0%-inhibition in the absence of inhibitor, DMSO only) and 100%-inhibition (in the absence of enzyme) were assembled in replicates of four and were used to calculate %-inhibition in the presence of test compounds. The reactions were initiated by addition of 10 μL of the PIP2/PS substrate supplemented with ATP. The final concentration of enzymes was 0.5 nM (PI3Kα), 1 nM (PI3Kβ), 10 nM (PI3Kγ), and 0.25 nM (PI3Kδ). The final concentration of ATP was 90 μM (PI3Kα), 60 μM (PI3Kβ), 100 μM (PI3Kγ), and 90 μM (PI3Kδ). The final concentration of PIP2/PS substrate was 1 μM (PIP2). The kinase reactions were allowed to proceed for 3 h at room temperature. Following incubation, the reactions were quenched by addition of 50 μL of termination buffer (100 mM HEPES, pH 7.5, 0.01% Triton X-100, 20 mM EDTA). Terminated plates were analyzed on a microfluidic electrophoresis instrument (Caliper LabChip® 3000, Caliper Life Sciences/Perkin Elmer). The change in the relative fluorescence intensity of the PI(4,5)P substrate and PI(3,4,5)P product peaks was measured. The activity in each test sample was determined as the product to sum ratio (PSR): P/(S+P), where P is the peak height of the product, and S is the peak height of the substrate. Percent inhibition (Pinh) was determined using the following equation:
Pinh=(PSR0% inh−PSRcompound)/(PSR0% inh−PSR100% inh)*100
in which PSRcompound is the product/sum ratio in the presence of compound, PSR0% inh is the product/sum ratio in the absence of compound, and the PSR100% inh is the product/sum ratio in the absence of the enzyme.

[3] = molecular target: T3, PI3Kδ (Homo sapiens, UniProt O00329); assay: Inhibition of PI3K isoforms: PI3Kδ (microfluidic electrophoresis kinase assay, PIP2/PS substrate); assay type: biochemical; conditions: p110δ/p85α, ATP 90 μM; read-out: PI3Kd IC50
T3 construct: Full-length N-terminal; GST (N); host or cells: SF9 cells (baculovirus)
T3 sequence (O00329 whole entry, canonical isoform): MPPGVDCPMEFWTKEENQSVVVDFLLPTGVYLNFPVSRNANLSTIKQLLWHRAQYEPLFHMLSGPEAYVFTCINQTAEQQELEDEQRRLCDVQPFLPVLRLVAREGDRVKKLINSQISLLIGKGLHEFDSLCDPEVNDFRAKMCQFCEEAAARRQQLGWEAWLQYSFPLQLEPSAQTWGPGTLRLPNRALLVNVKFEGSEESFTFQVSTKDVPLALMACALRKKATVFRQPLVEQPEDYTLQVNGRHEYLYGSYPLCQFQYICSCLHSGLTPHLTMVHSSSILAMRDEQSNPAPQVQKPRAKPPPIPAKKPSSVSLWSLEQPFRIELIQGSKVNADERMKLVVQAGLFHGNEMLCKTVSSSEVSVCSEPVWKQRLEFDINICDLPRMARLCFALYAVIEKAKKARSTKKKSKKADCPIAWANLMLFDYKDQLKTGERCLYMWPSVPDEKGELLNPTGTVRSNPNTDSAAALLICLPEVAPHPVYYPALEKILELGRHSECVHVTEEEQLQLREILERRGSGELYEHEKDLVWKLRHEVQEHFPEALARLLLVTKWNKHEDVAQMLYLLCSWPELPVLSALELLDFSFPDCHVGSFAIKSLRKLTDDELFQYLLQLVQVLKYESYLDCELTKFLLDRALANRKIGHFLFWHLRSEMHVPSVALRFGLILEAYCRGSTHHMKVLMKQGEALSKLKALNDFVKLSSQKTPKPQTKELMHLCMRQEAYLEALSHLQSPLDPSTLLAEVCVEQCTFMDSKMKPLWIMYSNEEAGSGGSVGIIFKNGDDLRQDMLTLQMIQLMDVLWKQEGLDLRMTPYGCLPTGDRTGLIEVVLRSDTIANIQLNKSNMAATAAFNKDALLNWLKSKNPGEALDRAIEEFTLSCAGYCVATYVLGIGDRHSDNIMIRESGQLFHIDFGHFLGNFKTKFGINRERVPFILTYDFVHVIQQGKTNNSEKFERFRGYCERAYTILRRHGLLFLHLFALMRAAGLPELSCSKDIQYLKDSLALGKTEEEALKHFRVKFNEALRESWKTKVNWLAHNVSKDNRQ
T3 sequence (P27986 whole entry partner, canonical isoform): as the sequence (P27986 whole entry partner, canonical isoform) above
Experimental: The kinase substrate was prepared by mixing and sonicating fluorescently-labeled phosphatidylinositol 4,5-phosphate (PIP2) with phospho-L-[…]:20 ratio in 50 mM HEPES buffer pH7.5. The kinase reactions were assembled in 384-well plates (Greiner) in a total volume of […] as follows. The kinase proteins were pre-diluted in an assay buffer comprising 50 mM HEPES, pH 7.5, 0.012% CHAPS, 1 mM DTT, 10 mM Na3VaO4, 10 mM 3-GP, 3 mM MgCl2, and 40 mM NaCl2, and dispensed into a 384-well plate (10 μL per well). Test compounds were serially pre-diluted in DMSO and added to the protein samples by acoustic dispensing (Labcyte Echo). The concentration of DMSO was equalized to 1% in all samples. All test compounds were tested at 12 concentrations. The control samples (0%-inhibition in the absence of inhibitor, DMSO only) and 100%-inhibition (in the absence of enzyme) were assembled in replicates of four and were used to calculate %-inhibition in the presence of test compounds. The reactions were initiated by addition of 10 μL of the PIP2/PS substrate supplemented with ATP. The final concentration of enzymes was 0.5 nM (PI3Kα), 1 nM (PI3Kβ), 10 nM (PI3Kγ), and 0.25 nM (PI3Kδ). The final concentration of ATP was 90 μM (PI3Kα), 60 μM (PI3Kβ), 100 μM (PI3Kγ), and 90 μM (PI3Kδ). The final concentration of PIP2/PS substrate was 1 μM (PIP2). The kinase reactions were allowed to proceed for 3 h at room temperature. Following incubation, the reactions were quenched by addition of 50 μL of termination buffer (100 mM HEPES, pH 7.5, 0.01% Triton X-100, 20 mM EDTA). Terminated plates were analyzed on a microfluidic electrophoresis instrument (Caliper LabChip® 3000, Caliper Life Sciences/Perkin Elmer). The change in the relative fluorescence intensity of the PI(4,5)P substrate and PI(3,4,5)P product peaks was measured. The activity in each test sample was determined as the product to sum ratio (PSR): P/(S+P), where P is the peak height of the product, and S is the peak height of the substrate. Percent inhibition (Pinh) was determined using the following equation: Pinh=(PSR0% inh-PSRcompound)/(PSR0% inh-PSR100% inh)*100 in which PSRcompound is the product/sum ratio in the presence of compound, PSR0% inh is the product/sum ratio in the absence of compound, and the PSR100% inh is the product/sum ratio in the absence of the enzyme. […] (Pinh versus compound concentration) were fitted by a four-parameter sigmoid dose-response model using XLfit software (IDBS).

[4] = tested on: HEK 293T transfected with plasmids containing TDP-43 Q331K mutation; assay: HEK/TDP Survival assay (Cell-Titer-Glo, 48 hrs, maximal effect of rescue); assay type: cell-based; conditions: Homo sapiens, HEK 293T with TDP-43 Q331K, (n) in brackets
Experimental: HEK/TDP Survival assay: Immortalized human embryonic kidney 293T (HEK 293T) were transfected with plasmids containing TDP-43 Q331K mutation, resulting in an increase in cell death that is biologically relevant to ALS patients. Cell death is measured as reductions in the amount of ATP, an indicator of metabolically active cells, that is quantified by a luminescence Cell-Titer-Glo® (CTG) reagent. Compounds are evaluated in this model for changes in CTG compared to a no treatment group. Increased signal indicates improved survival (rescue) and decreased signal indicates decreased survival.
Cell rescue was measured in a 96-well format with eight different concentrations of the test compound over 48 hours (hrs) with 6 replicates. The Promega Cell-Titer-Glo® Luminescent Cell Viability Assay was used to quantify ATP, an indicator of metabolically active cells (see protocol: https://www.promega.com/-/media/files/resources/protocols/technical-manuals/101/celltiterglo-2-0-assay-protocol.pdf?la=en). The luminescence signal was detected using the PerkinElmer EnVision or Molecular Devices SpectraMax.
The effect of a compound at a given dose on cell viability was determined using a three step procedure. First, Hedge's g for the Cell Titer-Glo luminescence values using six untreated wells on every plate as a control was calculated. […] Finally, values from all compound-dose pairs were corrected for multiple hypothesis testing using the Empirical Bayes framework of Stephens, M. (False discovery rates: a new deal, Biostatistics, 18 [2], 2017, 275-294) yielding credible intervals for the measured effect and associated s values.
Briefly, this method computes a local false sign rate for each experiment. Analogous to the local false discovery rate of Efron, B. (Size, power and false discovery rates, Ann. Statist. 35 [4], 2007, 1351-1377) this value measures the confidence in the sign of each effect (rather than confidence in each effect being non-zero). The s values reported in the previous figures are the expected fraction of errors if estimating the sign of all effects with greater absolute local false sign rate, defined in analogy to the q value of Storey, JD (The positive false discovery rate: a Bayesian interpretation and the q-value, Ann. Statist. 31 [6] 2003, 2013-2035).
Drugs that yielded signed log s values greater than 3 were considered hits. This threshold was determined by a separate calibration experiment in which Cell Titer-Glo® was measured in blank plates consisting of untreated cells to assess the noise inherent in the assay. Data are presented as the maximal effect of rescue obtained from the dose-response curve.

[5] = tested on: ALS patient (SOD1 A4V) iPSC derived motor neurons; assay: iPSC MN Survival assay (GFP imaging, six days, hazard ratio from Cox regression); assay type: cell-based; conditions: Homo sapiens, survival rescue, read-out: C9 iPSC MN Significant survival rescue EC50

SMILES	IC50 [1]	IC50 [2]	IC50 [3]	EC50 [4]	EC50 [5]
c1cc(-c2cc3nc(Nc4cc(C5CCC5)n[nH]4)nc(N4CCOCC4)c3o2)ccn1 [Compound 70, N-(5-cyclobutyl-1H-pyrazol-3-yl)-4-morpholino-6-(pyridin-4-yl)furo[3,2-d]pyrimidin-2-amine, hydrogen chloride]	0.142 µM	4.14 µM	0.164 µM		
CNC(=O)c1cc2nc(Nc3cc(C4CCC4)n[nH]3)nc(N3CCOCC3)c2o1 [Compound 80, 2-((5-cyclobutyl-1H-pyrazol-3-yl)amino)-N-methyl-4-morpholinofuro[3,2-d]pyrimidine-6-carboxamide, hydrogen chloride]	5.5 µM	5.52 µM	0.454 µM		
CNC(=O)c1cc2nc(Nc3cc(C4CCCC4)n[nH]3)nc(N3CCOCC3)c2o1 [Compound 83, 2-((5-cyclopentyl-1H-pyrazol-3-yl)amino)-N-methyl-4-morpholinofuro[3,2-d]pyrimidine-6-carboxamide, hydrogen chloride]	4.09 µM	3.72 µM			

Second part, led by results:

IC50 [1]	IC50 [2]	IC50 [3]	SMILES	EC50 [4]	EC50 [5]
≥ 20 µM	4.53 µM	0.218 µM	CNC(=O)c1cc2nc(Nc3cc(CC4CCCC4)n[nH]3)nc(N3CCOCC3)c2o1 [Compound 84, 2-((5-(cyclopentylmethyl)-1H-pyrazol-3-yl)amino)-N-methyl-4-morpholinofuro[3,2-d]pyrimidine-6-carboxamide, hydrogen chloride]		
≥ 20 µM	3.48 µM		CCc1cc(Nc2nc(N3CCOCC3)c3oc(C(=O)NC)cc3n2)[nH]n1 [Compound 87, 2-((5-ethyl-1H-pyrazol-3-yl)amino)-N-methyl-4-morpholinofuro[3,2-d]pyrimidine-6-carboxamide, hydrogen chloride]		
0.025 µM			Cc1cccc(-c2cnn(-c3nc(N4CCOCC4)c4oc(-c5ccncn5)cc4n3)c2)c1 [Compound 143, 4-morpholino-6-(pyrimidin-4-yl)-2-(4-(m-tolyl)-1H-pyrazol-1-yl)furo[3,2-d]pyrimidine]	48 nM	1 µM
